Assay: gradient 5% acetonitrile 3 min, to 50% in 2 min, to 85% in 15 min, held 3 min, 100 µL/min
Conditions: column: Zorbax Extend-C18 2.1 x 50 mm; eluents: water / acetonitrile, 0.1% formic acid
In short: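 Standards, all pure, were combined into mixtures of ~100 molecules and run at 100 μL/min on a Zorbax Extend-C18 column (2.1 × 50 mm, 1.8 μm) with water and acetonitrile, each containing 0.1% formic acid. A coupled quadrupole time-of-flight mass spectrometer operated in positive and negative ionization mode. Retention time values come from computationally picked adduct peaks, each inspected manually.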

Compound | RP-LC retention time [s]
O=C(c1ccc(OCC2CCCN2C(=O)c2ccc(F)cc2)cc1)N1CCCC1 (stereo not given) | 829
Cc1oc2ncn(CC(=O)N3CCC(C(N)=O)CC3)c(=O)c2c1C | 613
Cc1cc([N+](=O)[O-])nn1CC(=O)NCc1cccs1 | 572
Cc1nn2c(CNC(=O)c3cc(F)cc(F)c3)c(C)nc2s1 | 651
CCCNC(=O)CC1Sc2ncccc2N(CCC)C1=O (stereo not given) | 683
CCOc1ccccc1CNC(=O)Cc1cn(C)c2ncccc12 | 739
Cn1c(=O)c(N2CCC(NC(=O)Nc3ccccc3F)CC2)nc2ccccc21 | 910
COc1cn(-c2ccc(F)cc2)nc1C(=O)NCCC1=CCCCC1 | 942
O=C(CC1CCCC1)NCCC1CCN(C(=O)Nc2ccc(F)cc2F)CC1 | 812
CC(C)Cn1cc(CCNS(=O)(=O)c2ccc(C(C)C)cc2)c2cccnc21 | 1110
COC(=O)c1ccccc1NC(=O)Cn1c(=O)c(CCC(=O)NCC(C)C)nc2ccccc21 | 878
O=C1CN(S(=O)(=O)c2cccc(Cl)c2)CC2(CCOCC2)N1CC1CC1 | 877
CCc1c(C2CCN(C(=O)c3cccc(C#N)c3)CC2)noc1N | 690
CC(NC(=O)c1ccc(OC(F)(F)F)cc1)C(=O)N1CCN(c2ccccn2)CC1 (stereo not given) | 643
CC(Cc1ccco1)NC(=O)c1ccc(N2CCCCC2)c(S(=O)(=O)N2CCCCC2)c1 (stereo not given) | 1190
CC1CN(c2nc3c(c(=O)n(C)c(=O)n3C)n2Cc2cccc(F)c2)CC(C)O1 (stereo not given) | 885
COc1ccc(CSc2nccc3c2ccn3CC(=O)NCc2ccc(OC)c(OC)c2)cc1 | 681
COc1cc(C2CC(=O)N(CC(=O)NCC3CCCO3)c3ccccc3S2)cc(OC)c1OC (stereo not given) | 772
Cc1ccc(-n2c(N3CCCC(C(=O)NCCCOC(C)C)C3)nc3ccsc3c2=O)cc1 (stereo not given) | 838
CCSc1ccccc1C(=O)NCCCn1cccc1 | 791
CCCc1nc2ccc(CCC(=O)Nc3cc(OC)cc(OC)c3)cc2[nH]1 | 657

Compound | RP-LC retention time [s]
CNC(=O)CCc1nc2ccccc2n(CC(=O)NCc2ccc(C)cc2)c1=O | 695
COc1ccc(-c2cnn3c(C)cc(C)nc23)cc1S(=O)(=O)N1CCN(C2CCCCC2)CC1 | 690
CCOC(=O)C1CCCN(c2ncnc3c2cnn3-c2ccccc2)C1 (stereo not given) | 1070
COc1cc(-c2nc3ncccn3c2NC2CCCC2)cc(OC)c1OC | 705
CCN1CCn2cc(S(=O)(=O)NCc3cccc(C(F)(F)F)c3)cc2C1=O | 781
Cc1oc2ccn(Cc3cccc(F)c3)c(=O)c2c1C(=O)N(C)Cc1ccccc1 | 898
CCSCCOC(=O)C1=C(C)NC2=C(C(=O)C(C(=O)OC)C(C)C2)C1c1cccc(OC)c1 (stereo not given) | 968
CNC(=O)c1ccc2c(c1)CCCN2C(=O)c1cccc(Cl)c1 | 746
COc1cccc(CNC(=O)N2CCCC(Cn3cnc4cccnc43)C2)c1 (stereo not given) | 654
CCCC(C)C(=O)N1CCCN(C2=NS(=O)(=O)C(c3ccc(CC)cc3)=C2C)CC1 (stereo not given) | 935
CC1CCN(S(=O)(=O)c2ccc3nn(Cc4ccc(F)cc4)c(=O)n3c2)CC1 | 1020
Cc1noc(C2CN(C(=O)CCC3CCCC3)CC23CCOCC3)n1 (stereo not given) | 814
CC(=O)N1CCc2cc(N3CC(C(=O)NC4CCCCCC4)CC3=O)ccc21 (stereo not given) | 723
CCCCN(C)C(=O)Cn1c(C(C)NC(=O)c2ccco2)nc2ccccc21 (stereo not given) | 655
CC(NC(=O)c1ccc2nc(-c3ccc(Cl)cc3)cn2c1)c1ccccn1 (stereo not given) | 635
Cc1cc(C)cc(N2CCC(NC(=O)Nc3ccc(F)cc3F)C2=O)c1 (stereo not given) | 904
COc1cccc2cc(C(=O)NC3C=CS(=O)(=O)C3)oc12 (stereo not given) | 652
COc1ccc(NC(=O)c2ccc3[nH]c4c(c3c2)CN(C(=O)C2CCC2)CC4)c(OC)c1 | 807
COc1cc(C)c(C(C)C)cc1S(=O)(=O)NCc1ccco1 | 594
Cc1ccc(C(=O)N2CCC(Nc3ncnc4c3CCC4)C2)s1 (stereo not given) | 585
CCn1cc(S(=O)(=O)N2CCCC(c3nnnn3-c3ccccc3)C2)cn1 (stereo not given) | 807

Compound | RP-LC retention time [s]
O=C(c1cccnc1N1CCNC(c2ccccc2)C1)N1CCN(c2ncccn2)CC1 (stereo not given) | 604
CC(=O)N1c2ccc(S(=O)(=O)N3CCCCC3)cc2CC1C(=O)NCCN(C)Cc1ccccc1 (stereo not given) | 676
COc1ccc(CNC(=O)c2ccc3c(c2)OCO3)c(OC)c1 | 749
O=C1CN(C(=O)Cc2ccccc2Cl)C2(CCCC2)CN1 | 727
CCC(C)OC(=O)c1[nH]c2c(c1C)C(=O)CC(c1ccc(N(C)C)cc1)C2 (stereo not given) | 764
CN1c2ccc(Cl)cc2C(=O)NC12CCN(C(=O)NCCc1ccccc1)CC2 | 819
O=S(=O)(c1cccnc1)N1CCCC(c2nnc(C(F)(F)F)o2)C1 (stereo not given) | 747
Cc1ccc(C(=O)N2CCC3(CC2)N(C)C(=O)CS3(=O)=O)s1 | 614
CCc1ccccc1NC(=O)N1CC(n2cnnc2-c2ccccc2)C1 | 686
C=CCN1C(=O)COc2ccc(-c3nc(NC(=O)CCC4CCCCC4)sc3C)cc21 | 1220
COc1ccc(NC(=O)c2cc3c(s2)CN(C2CC2)C3)c(C)c1 | 783
CCCNc1cc(N2CCC(CCC(=O)NCc3cc(F)ccc3F)CC2)ncn1 | 684
CCOC(=O)[C@@H](N)Cc1ccc(O)c(O)c1 | 579
CC(C)CCNC(=O)c1ccc2c(c1)nc1n2CCN(C2CCCCC2)C1=O | 815
CCCN1C(=O)COc2ccc(-c3csc(NC(=O)CC)n3)cc21 | 861
CN(C)C(=O)c1n[nH]c2c1CN(C(=O)c1ccc(F)cc1)CC2 | 622
Cc1ccc(CNC(=O)C2CCN(S(=O)(=O)c3cc(C(=O)N4CCCC4)n(C)c3)CC2)cc1 | 872
CCNC(=O)C1CCN(C(=O)N2C[C@H]3C[C@H](C2)[C@H]2CCCC(=O)N2C3)CC1 | 599
O=C(c1ccc(-c2ccsc2)nc1)N1CCN(C2CCCCC2)CC1 | 625

The remaining lines, values ahead:

RP-LC retention time [s] | Compound
992 | CCc1nc2cc(N3CCC(C(=O)Nc4cc(C)ccc4OC)CC3)cnc2nc1CC
722 | Cc1ccc(NC(=O)N(C)CC2CCOC2)cc1F (stereo not given)
681 | Cc1cc(C)c(CNC(=O)C2CCN(c3cncnc3N3CCOCC3)CC2)c(C)c1
646 | Cc1cc(N2CCOCC2)nc(N2CCN(C(=O)c3ccc(C)c(C)c3)CC2)n1
608 | Cc1noc(C2CCCCN2Cc2cc(=O)n3ccccc3n2)n1 (stereo not given)
826 | CCN1C(=O)c2cccnc2Sc2cc(NC(=O)Cc3cccc(F)c3)ccc21
804 | CCn1nc(CNC(=O)c2ccc3c(c2)OCO3)c2ccccc21
1050 | Cc1cccc(NC(=O)c2csc(-c3cn(C)c4ncccc34)n2)c1C
888 | Cc1cc(C)cc(NC(=O)c2c(C)oc3nc(C)nc(N4CCOCC4)c23)c1
793 | CC(C)n1nnc2cc(C(=O)N(C)CC(=O)Nc3ccc(Cl)cc3)ccc21
675 | Cc1ncc2c(n1)CCN(C(=O)c1ccc(Br)cc1)C2
818 | Cc1ccc(Nc2c(-c3cc(Br)ccc3F)nc3cc(C)ccn23)cc1
784 | COC(=O)Cn1c(C)cc(=O)n2nc(-c3cccc(C)c3)nc12
807 | Cc1ccc2c(Nc3ccc(C)c(F)c3)c(-c3nc(C)no3)cnc2n1
1050 | Cc1ccc(Nc2c(-c3cc(Br)ccc3O)nc3ncccn23)cc1
1060 | CCCN1C(=O)COc2cc(-c3noc(C(=O)NCCC(C)C)n3)ccc21
657 | CCn1c(CN(C)C(=O)Nc2ccc(Br)cc2)nc2cc(C(=O)N(C)C)ccc21
1140 | CCOc1ccc(CCNC(=O)c2sc(-c3cccn3CC)nc2C)cc1OCC
856 | Cc1ccc(C)c(-c2cc3c4nn(CC(=O)NC(C)C)c(=O)n4ccn3n2)c1
793 | Cc1ccc(Nc2c(-c3nc(C)no3)cnc3nc(C)ccc23)c(F)c1
935 | Cc1nc(-c2csc(S(=O)(=O)N3CCCC(C(=O)Nc4ccc(C#N)cc4)C3)c2)no1 (stereo not given)
1060 | CCN1C(=O)c2cc(S(=O)(=O)Nc3cccc(Cl)c3)ccc2Oc2cccnc21
806 | Cc1ccc(C(=O)N2CCC(n3c(-c4ccco4)nc4cccnc43)C2)cc1C (stereo not given)
829 | CCc1ccc(N2CC(c3noc(-c4ccccn4)n3)CC2=O)cc1 (stereo not given)
1020 | Cn1nc(-c2nnc(-c3ccc(F)cc3)o2)c2c1CCN(S(=O)(=O)c1ccc(Cl)cc1)C2
1060 | Cc1ccc(C)c(CNC(=O)c2nc3cccnc3n(CC(C)C)c2=O)c1
896 | CC(C)N1C(=O)c2cccnc2Sc2cc(NC(=O)c3ccc(F)cc3)ccc21
788 | CCOc1ccccc1-c1nc(-c2ccc3ncn(CC)c3c2)no1
779 | COc1cccc(F)c1-c1nc(C)c(C(=O)Nc2nc3ccccc3[nH]2)s1

— the METLIN SMRT retention time set (Domingo-Almenara et al. 2019)
